# In ChEMBL document CHEMBL3885881, “DrugMatrix”:
# Species: Rattus norvegicus
# Assay: DrugMatrix - Regimen: Daily Repeat
# Format: toxicity, organism-based, Sprague-Dawley
# Design: regimen Daily Repeat, gender Male, age 6-8 weeks
# Settings: in vivo, po, route oral GAVAGE, vehicle .5 % CMC; for BASOPHIL / EOSINOPHIL / ERYTHROCYTE COUNT / HEMATOCRIT / HEMOGLOBIN / LEUKOCYTE COUNT / LYMPHOCYTE / MEAN CORPUSCULAR HEMOGLOBIN / MEAN CORPUSCULAR HEMOGLOBIN CONCENTRATION / MEAN CORPUSCULAR VOLUME / MONOCYTE / NEUTROPHIL / PLATELET COUNT: tissue Blood; for ALANINE AMINOTRANSFERASE / ALBUMIN / ALKALINE PHOSPHATASE / ASPARTATE AMINOTRANSFERASE / BLOOD UREA NITROGEN / CARBON DIOXIDE / CHLORIDE / CHOLESTEROL / CREATINE PHOSPHOKINASE / CREATININE / GLUCOSE / LACTATE DEHYDROGENASE / LIPASE / PHOSPHORUS / POTASSIUM / SODIUM / TOTAL BILIRUBIN / TOTAL PROTEIN / URIC ACID: tissue Plasma
# [1] = 0 mg/kg, 96 h, dose level Control, time 4 day
# [2] = 0 mg/kg, […], dose level Control, time 6 day
# [3] = 0 mg/kg, […], dose level Control, time 14 day
# [4] = 750 mg/kg, 96 h, dose level High, time 4 day
# [5] = 750 mg/kg, […], dose level High, time 6 day
# [6] = 750 mg/kg, […], dose level High, time 14 day
smiles,measurement,setting,value
Cc1ccc([N+](=O)[O-])cc1 [4-NITROTOLUENE],BASOPHIL,[1],0.5%
same,EOSINOPHIL,[1],1.85%
same,ERYTHROCYTE COUNT,[1],6.99 x10E6/uL
same,HEMATOCRIT,[1],43.82%
same,HEMOGLOBIN,[1],13.87 G/DL
same,LEUKOCYTE COUNT,[1],12.01 x10E3/uL
same,LYMPHOCYTE,[1],82.07%
same,MEAN CORPUSCULAR HEMOGLOBIN,[1],19.8 pg
same,MEAN CORPUSCULAR HEMOGLOBIN CONCENTRATION,[1],31.63 G/DL
same,MEAN CORPUSCULAR VOLUME,[1],62.7 fL
same,MONOCYTE,[1],2.6%
same,NEUTROPHIL,[1],12.38%
same,PLATELET COUNT,[1],1155 x10E3/uL
same,ALANINE AMINOTRANSFERASE,[1],31.67 u/L
same,ALBUMIN,[1],4.12 G/DL
same,ALKALINE PHOSPHATASE,[1],396 u/L
same,ASPARTATE AMINOTRANSFERASE,[1],75.67 u/L
same,BLOOD UREA NITROGEN,[1],17.5 mg/dL
same,CARBON DIOXIDE,[1],28.83 mmol/L
same,CHLORIDE,[1],103.83 MEQ/L
same,CHOLESTEROL,[1],84.83 mg/dL
same,CREATINE PHOSPHOKINASE,[1],597.17 u/L
same,CREATININE,[1],0.3 mg/dL
same,GLUCOSE,[1],161.5 mg/dL
same,LACTATE DEHYDROGENASE,[1],138.67 u/L
same,LIPASE,[1],11.5 u/L
same,PHOSPHORUS,[1],11.58 mg/dL
same,POTASSIUM,[1],6.87 MEQ/L
same,SODIUM,[1],146.83 MEQ/L
same,TOTAL BILIRUBIN,[1],0.38 mg/dL
same,TOTAL PROTEIN,[1],6.33 G/DL
same,URIC ACID,[1],1.37 mg/dL
same,BASOPHIL,[2],0.37%
same,EOSINOPHIL,[2],0.38%
same,ERYTHROCYTE COUNT,[2],6.89 x10E6/uL
same,HEMATOCRIT,[2],47.38%
same,HEMOGLOBIN,[2],14.8 G/DL
same,LEUKOCYTE COUNT,[2],13.59 x10E3/uL
same,LYMPHOCYTE,[2],80.27%
same,MEAN CORPUSCULAR HEMOGLOBIN,[2],21.52 pg
same,MEAN CORPUSCULAR HEMOGLOBIN CONCENTRATION,[2],31.22 G/DL
same,MEAN CORPUSCULAR VOLUME,[2],68.83 fL
same,MONOCYTE,[2],2.78%
same,NEUTROPHIL,[2],15.65%
same,PLATELET COUNT,[2],1330.17 x10E3/uL
same,BASOPHIL,[3],0.38%
same,EOSINOPHIL,[3],0.6%
same,ERYTHROCYTE COUNT,[3],7.78 x10E6/uL
same,HEMATOCRIT,[3],48.3%
same,HEMOGLOBIN,[3],15.42 G/DL
same,LEUKOCYTE COUNT,[3],13.55 x10E3/uL
same,LYMPHOCYTE,[3],81.18%
same,MEAN CORPUSCULAR HEMOGLOBIN,[3],19.8 pg
same,MEAN CORPUSCULAR HEMOGLOBIN CONCENTRATION,[3],31.92 G/DL
same,MEAN CORPUSCULAR VOLUME,[3],62.08 fL
same,MONOCYTE,[3],1.72%
same,NEUTROPHIL,[3],15.17%
same,PLATELET COUNT,[3],1083.83 x10E3/uL
same,ALANINE AMINOTRANSFERASE,[2],36 u/L
same,ALBUMIN,[2],4.03 G/DL
same,ALKALINE PHOSPHATASE,[2],354.17 u/L
same,ASPARTATE AMINOTRANSFERASE,[2],76.5 u/L
same,BLOOD UREA NITROGEN,[2],19.33 mg/dL
same,CARBON DIOXIDE,[2],27.83 mmol/L
same,CHLORIDE,[2],105.5 MEQ/L
same,CHOLESTEROL,[2],68.83 mg/dL
same,CREATINE PHOSPHOKINASE,[2],383.83 u/L
same,CREATININE,[2],0.35 mg/dL
same,GLUCOSE,[2],165.83 mg/dL
same,LACTATE DEHYDROGENASE,[2],155.17 u/L
same,LIPASE,[2],9.83 u/L
same,PHOSPHORUS,[2],12.4 mg/dL
same,POTASSIUM,[2],6.9 MEQ/L
same,SODIUM,[2],147.33 MEQ/L
same,TOTAL BILIRUBIN,[2],0.52 mg/dL
same,TOTAL PROTEIN,[2],6.42 G/DL
same,URIC ACID,[2],1.6 mg/dL
same,ALANINE AMINOTRANSFERASE,[3],36.83 u/L
same,ALBUMIN,[3],4.13 G/DL
same,ALKALINE PHOSPHATASE,[3],328.17 u/L
same,ASPARTATE AMINOTRANSFERASE,[3],74.83 u/L
same,BLOOD UREA NITROGEN,[3],18.67 mg/dL
same,CARBON DIOXIDE,[3],29.33 mmol/L
same,CHLORIDE,[3],105.17 MEQ/L
same,CHOLESTEROL,[3],72 mg/dL
same,CREATINE PHOSPHOKINASE,[3],217.67 u/L
same,CREATININE,[3],0.45 mg/dL
same,GLUCOSE,[3],151.17 mg/dL
same,LACTATE DEHYDROGENASE,[3],133.17 u/L
same,LIPASE,[3],14.5 u/L
same,PHOSPHORUS,[3],11.55 mg/dL
same,POTASSIUM,[3],6.77 MEQ/L
same,SODIUM,[3],149.33 MEQ/L
same,TOTAL BILIRUBIN,[3],0.37 mg/dL
same,TOTAL PROTEIN,[3],6.62 G/DL
same,URIC ACID,[3],1.57 mg/dL
same,BASOPHIL,[4],0.3%
same,EOSINOPHIL,[4],0.63%
same,ERYTHROCYTE COUNT,[4],6.55 x10E6/uL
same,HEMATOCRIT,[4],41.57%
same,HEMOGLOBIN,[4],12.83 G/DL
same,LEUKOCYTE COUNT,[4],12.7 x10E3/uL
same,LYMPHOCYTE,[4],82.73%
same,MEAN CORPUSCULAR HEMOGLOBIN,[4],19.6 pg
same,MEAN CORPUSCULAR HEMOGLOBIN CONCENTRATION,[4],30.9 G/DL
same,MEAN CORPUSCULAR VOLUME,[4],63.5 fL
same,MONOCYTE,[4],1.93%
same,NEUTROPHIL,[4],13.9%
same,PLATELET COUNT,[4],1261.33 x10E3/uL
same,ALANINE AMINOTRANSFERASE,[4],28.33 u/L
same,ALBUMIN,[4],3.93 G/DL
same,ALKALINE PHOSPHATASE,[4],300 u/L
same,ASPARTATE AMINOTRANSFERASE,[4],82.67 u/L
same,BLOOD UREA NITROGEN,[4],18.67 mg/dL
same,CARBON DIOXIDE,[4],25.33 mmol/L
same,CHLORIDE,[4],106 MEQ/L
same,CHOLESTEROL,[4],90 mg/dL
same,CREATINE PHOSPHOKINASE,[4],852 u/L
same,CREATININE,[4],0.4 mg/dL
same,GLUCOSE,[4],175.33 mg/dL
same,LACTATE DEHYDROGENASE,[4],320.67 u/L
same,LIPASE,[4],11 u/L
same,PHOSPHORUS,[4],12.03 mg/dL
same,POTASSIUM,[4],6.37 MEQ/L
same,SODIUM,[4],147 MEQ/L
same,TOTAL BILIRUBIN,[4],0.4 mg/dL
same,TOTAL PROTEIN,[4],6.07 G/DL
same,URIC ACID,[4],1.5 mg/dL
same,BASOPHIL,[5],0.2%
same,EOSINOPHIL,[5],0.4%
same,ERYTHROCYTE COUNT,[5],6.89 x10E6/uL
same,HEMATOCRIT,[5],50%
same,HEMOGLOBIN,[5],14.85 G/DL
same,LEUKOCYTE COUNT,[5],11.06 x10E3/uL
same,LYMPHOCYTE,[5],89%
same,MEAN CORPUSCULAR HEMOGLOBIN,[5],21.5 pg
same,MEAN CORPUSCULAR HEMOGLOBIN CONCENTRATION,[5],29.65 G/DL
same,MEAN CORPUSCULAR VOLUME,[5],72.6 fL
same,MONOCYTE,[5],0.95%
same,NEUTROPHIL,[5],9%
same,PLATELET COUNT,[5],1574 x10E3/uL
same,BASOPHIL,[6],0.68%
same,EOSINOPHIL,[6],0.52%
same,ERYTHROCYTE COUNT,[6],7.67 x10E6/uL
same,HEMATOCRIT,[6],48.12%
same,HEMOGLOBIN,[6],15.24 G/DL
same,LEUKOCYTE COUNT,[6],10.23 x10E3/uL
same,LYMPHOCYTE,[6],81.12%
same,MEAN CORPUSCULAR HEMOGLOBIN,[6],19.9 pg
same,MEAN CORPUSCULAR HEMOGLOBIN CONCENTRATION,[6],31.7 G/DL
same,MEAN CORPUSCULAR VOLUME,[6],62.76 fL
same,MONOCYTE,[6],2.12%
same,NEUTROPHIL,[6],14.52%
same,PLATELET COUNT,[6],1133.4 x10E3/uL
same,ALANINE AMINOTRANSFERASE,[5],39 u/L
same,ALBUMIN,[5],4.2 G/DL
same,ALKALINE PHOSPHATASE,[5],351.67 u/L
same,ASPARTATE AMINOTRANSFERASE,[5],89 u/L
same,BLOOD UREA NITROGEN,[5],16.67 mg/dL
same,CARBON DIOXIDE,[5],29.33 mmol/L
same,CHLORIDE,[5],106 MEQ/L
same,CHOLESTEROL,[5],68 mg/dL
same,CREATINE PHOSPHOKINASE,[5],701.67 u/L
same,CREATININE,[5],0.6 mg/dL
same,GLUCOSE,[5],151.33 mg/dL
same,LACTATE DEHYDROGENASE,[5],127 u/L
same,LIPASE,[5],10.67 u/L
same,PHOSPHORUS,[5],11.57 mg/dL
same,POTASSIUM,[5],6.27 MEQ/L
same,SODIUM,[5],149.33 MEQ/L
same,TOTAL BILIRUBIN,[5],0.33 mg/dL
same,TOTAL PROTEIN,[5],6.5 G/DL
same,URIC ACID,[5],1.4 mg/dL
same,ALANINE AMINOTRANSFERASE,[6],40.6 u/L
same,ALBUMIN,[6],4.04 G/DL
same,ALKALINE PHOSPHATASE,[6],340.4 u/L
same,ASPARTATE AMINOTRANSFERASE,[6],91.2 u/L
same,BLOOD UREA NITROGEN,[6],18.2 mg/dL
same,CARBON DIOXIDE,[6],28.6 mmol/L
same,CHLORIDE,[6],105.6 MEQ/L
same,CHOLESTEROL,[6],66.6 mg/dL
same,CREATINE PHOSPHOKINASE,[6],631.6 u/L
same,CREATININE,[6],0.56 mg/dL
same,GLUCOSE,[6],157.4 mg/dL
same,LACTATE DEHYDROGENASE,[6],226.6 u/L
same,LIPASE,[6],13.6 u/L
same,PHOSPHORUS,[6],12.16 mg/dL
same,POTASSIUM,[6],6.96 MEQ/L
same,SODIUM,[6],149.8 MEQ/L
same,TOTAL BILIRUBIN,[6],0.38 mg/dL
same,TOTAL PROTEIN,[6],6.12 G/DL
same,URIC ACID,[6],1.8 mg/dL
